# Tests used:
# α4β7 = target: T1, α4β7 (Homo sapiens, UniProt P13612+P26010); assay: α4β7 integrin inhibition, IC50; type: binding
# T1 sequence (P13612 34-1032): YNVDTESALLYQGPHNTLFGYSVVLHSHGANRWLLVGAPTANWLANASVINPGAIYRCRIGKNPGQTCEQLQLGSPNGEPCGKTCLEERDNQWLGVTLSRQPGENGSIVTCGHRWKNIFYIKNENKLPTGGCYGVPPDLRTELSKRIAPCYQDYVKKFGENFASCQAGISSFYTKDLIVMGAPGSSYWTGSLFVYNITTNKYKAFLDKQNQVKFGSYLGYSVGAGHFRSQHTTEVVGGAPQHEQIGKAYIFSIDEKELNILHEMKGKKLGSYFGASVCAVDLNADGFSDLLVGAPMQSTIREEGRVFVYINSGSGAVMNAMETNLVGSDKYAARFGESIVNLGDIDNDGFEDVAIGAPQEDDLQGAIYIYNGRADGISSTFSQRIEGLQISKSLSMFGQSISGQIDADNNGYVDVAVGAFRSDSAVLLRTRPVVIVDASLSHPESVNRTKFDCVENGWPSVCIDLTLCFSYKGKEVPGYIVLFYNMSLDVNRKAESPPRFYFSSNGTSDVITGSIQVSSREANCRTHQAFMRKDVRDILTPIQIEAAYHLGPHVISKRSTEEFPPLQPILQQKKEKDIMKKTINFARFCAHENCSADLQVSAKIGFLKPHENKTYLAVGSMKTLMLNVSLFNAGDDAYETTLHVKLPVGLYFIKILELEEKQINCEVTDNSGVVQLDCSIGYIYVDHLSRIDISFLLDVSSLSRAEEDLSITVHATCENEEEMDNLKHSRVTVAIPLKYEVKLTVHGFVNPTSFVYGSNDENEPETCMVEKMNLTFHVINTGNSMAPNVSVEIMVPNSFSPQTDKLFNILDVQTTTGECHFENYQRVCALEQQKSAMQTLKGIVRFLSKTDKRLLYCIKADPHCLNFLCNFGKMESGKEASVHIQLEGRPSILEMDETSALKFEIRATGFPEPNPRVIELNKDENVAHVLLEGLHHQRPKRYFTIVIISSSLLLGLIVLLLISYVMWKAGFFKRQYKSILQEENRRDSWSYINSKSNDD
# T1 sequence (P26010 20-798): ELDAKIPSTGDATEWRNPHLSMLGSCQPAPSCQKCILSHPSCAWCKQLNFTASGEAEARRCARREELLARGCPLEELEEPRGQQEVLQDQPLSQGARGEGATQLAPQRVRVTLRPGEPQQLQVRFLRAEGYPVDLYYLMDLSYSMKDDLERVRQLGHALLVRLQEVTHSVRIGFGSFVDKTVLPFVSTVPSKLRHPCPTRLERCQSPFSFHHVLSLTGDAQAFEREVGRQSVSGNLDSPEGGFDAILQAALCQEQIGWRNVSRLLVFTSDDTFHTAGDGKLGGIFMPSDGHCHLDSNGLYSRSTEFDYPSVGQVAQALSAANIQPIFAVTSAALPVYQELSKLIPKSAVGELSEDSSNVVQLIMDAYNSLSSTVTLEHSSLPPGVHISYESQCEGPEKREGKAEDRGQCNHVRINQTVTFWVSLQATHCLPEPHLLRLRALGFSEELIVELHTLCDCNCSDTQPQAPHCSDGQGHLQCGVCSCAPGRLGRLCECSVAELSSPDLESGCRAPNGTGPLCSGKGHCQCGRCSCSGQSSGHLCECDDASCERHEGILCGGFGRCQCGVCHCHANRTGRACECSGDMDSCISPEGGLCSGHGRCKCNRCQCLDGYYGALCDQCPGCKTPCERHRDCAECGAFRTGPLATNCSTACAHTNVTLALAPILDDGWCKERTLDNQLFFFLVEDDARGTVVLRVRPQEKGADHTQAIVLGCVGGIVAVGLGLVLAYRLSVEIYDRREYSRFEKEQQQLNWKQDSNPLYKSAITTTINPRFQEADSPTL
# α4β1 = α4β1 (Homo sapiens, UniProt P05556+P13612); assay: α4β1 integrin inhibition, IC50; type: binding; conditions: read-out: α4β1 IC50
# Chain of α4β1 (P05556 21-798, one chain of several): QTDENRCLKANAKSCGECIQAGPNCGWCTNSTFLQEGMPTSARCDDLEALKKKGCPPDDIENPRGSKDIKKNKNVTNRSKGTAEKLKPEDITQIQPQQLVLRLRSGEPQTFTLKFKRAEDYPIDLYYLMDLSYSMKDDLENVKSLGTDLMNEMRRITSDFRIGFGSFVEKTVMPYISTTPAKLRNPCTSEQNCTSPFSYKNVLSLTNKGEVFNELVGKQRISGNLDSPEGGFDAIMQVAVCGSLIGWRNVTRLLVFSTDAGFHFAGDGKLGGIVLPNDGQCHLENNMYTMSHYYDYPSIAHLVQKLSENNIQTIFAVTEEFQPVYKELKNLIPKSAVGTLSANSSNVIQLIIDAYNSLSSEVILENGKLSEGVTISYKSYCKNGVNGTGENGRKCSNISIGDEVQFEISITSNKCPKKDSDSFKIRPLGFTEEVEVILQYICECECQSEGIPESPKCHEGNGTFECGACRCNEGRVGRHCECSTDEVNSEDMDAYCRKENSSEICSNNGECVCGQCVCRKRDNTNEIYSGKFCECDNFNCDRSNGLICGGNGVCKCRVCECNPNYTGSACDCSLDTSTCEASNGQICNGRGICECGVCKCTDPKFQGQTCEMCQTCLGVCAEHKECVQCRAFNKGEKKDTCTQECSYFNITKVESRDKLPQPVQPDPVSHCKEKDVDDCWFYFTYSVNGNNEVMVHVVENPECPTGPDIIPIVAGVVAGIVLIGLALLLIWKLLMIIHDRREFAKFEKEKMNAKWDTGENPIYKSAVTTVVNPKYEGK
IC50 (α4β7) [µM],IC50 (α4β1) [µM],Compound
> 0.2,< 0.02,"COc1cccc(-c2cc([C@H](CC(=O)O)NC(=O)Nc3c(O)c(C)cn(C)c3=O)ccc2OC)c1 [1-527, sodium (S)-3-(3′,6-dimethoxybiphenyl-3-yl)-3-(3-(1,5-dimethyl-4-oxido-2-oxo-1,2-dihydropyridin-3-yl)ureido)propanoate]"
> 0.2,< 0.02,"Cn1ccc(O)c(NC(=O)N[C@@H](CC(=O)O)c2ccc(-c3ccc(F)cc3F)s2)c1=O [1-562, sodium (S)-3-(5-(2,4-difluorophenyl)thiophen-2-yl)-3-(3-(1-methyl-4-oxido-2-oxo-1,2-dihydropyridin-3-yl)ureido)propanoate]"
< 0.2,< 0.02,"COc1ccc([C@H](CC(=O)O)NC(=O)Nc2c(O)ccn(C)c2=O)cc1-c1c(C)cccc1C [1-533, sodium (S)-3-(6-methoxy-2′,6′-dimethylbiphenyl-3-yl)-3-(3-(1-methyl-4-oxido-2-oxo-1,2-dihydropyridin-3-yl)ureido)propanoate]"

# — patent US10875875B2, “Propionic acid derivatives and methods of use thereof” (Aviara Pharmaceuticals, Inc., priority 2017, dated 2020)
